Assay results from patent publication US12201601B2, “Treatment for obesity” (Axsome Malta Ltd., priority 2013, dated 2025).

Key:
[1] = classic rat self-administration model
[2] = 6-month repeated dose oral toxicity study in rats: food consumption; assay type: in vivo
Protocol: (§1) A 6-month repeated dose oral toxicity study with 3-month recovery was carried out in rats for R228060 (Formula Ib). Body weight and food consumption were monitored throughout the study.

[3] = 6-month repeated dose oral toxicity study with 3-month recovery in rats: body weight; assay type: in vivo; details: for Body weight gain (in words) / Body weight (in words): p<0.05-0.001; for Body weight after cessation of treatment (in words): recovery period; for Decreases in body weight gain at the end of the treatment period: conclusion over dose levels
Protocol: as §1

[4] = 52-week repeated dose oral toxicity study with 13-week recovery in beagle dogs: body weight; assay type: in vivo; details: for Body weight variation during the treatment-free period only (value in brackets, Table 1): Day 455
Protocol: (§2) A 52-week repeated dose oral toxicity study with 13-week recovery was carried out in beagle dogs for R228060 (Formula Ib). Body weight and food consumption were monitored throughout the study (see Table 1).

[5] = 6-week randomized, double blind, active and placebo-controlled study in adult subjects with major depressive disorder: body weight; assay type: in vivo, Humans; details: for Mean weight loss / Subjects with weight Decrease ≥7% / Subjects with weight Increase <7% / Subjects with weight Increase ≥7% / Subjects with weight No change/decrease <7% / Weight, Change from Baseline, Mean / Weight, Change from Baseline, Median: baseline to endpoint; for Weight, End point, Mean / Weight, End point, Median: 6-week study
Protocol: A 6-week randomized, double blind, parallel group, active and placebo-controlled study was carried out to assess the efficacy of R228060 in adult subjects with major depressive disorder (MDD). Body weight was monitored throughout the study.

[6] = nonclinical studies in mice, rats, and dogs: body weight and food consumption; assay type: in vivo
[7] = 52-week repeated dose oral toxicity study in beagle dogs: food consumption; assay type: in vivo
Protocol: as §2

[8] = female rats, 600/450 mg HCl-salt/kg
[9] = male rats, 600/450 mg HCl-salt/kg

NC(=O)OC[C@H](N)Cc1ccccc1 [Formula R228060, (R)-(beta-amino-benzenepropyl) carbamate]
Abuse potential: reinforcing properties (in words) [1]: not reinforcing
Statistically significant increases in food consumption (assessment in words) ([2]; female rats, 35, 300 and 600/450 mg HCl-salt/kg body weight level): toxicologically irrelevant
Food consumption (significance, in words) ([2]; rats, 300 and 600/450 mg HCl-salt/kg body weight level): statistically significant decreases
Food consumption (in words) ([2]; rats, both sexes, first weeks of dosing, starting at 35 mg HCl-salt/kg body weight/day for males and 300 for females): dose-related decrease in food consumption
Abuse potential: rewarding properties (in words) (place preference model): no significant rewarding properties
Body weight and body weight gain (in words) ([3]; female rats, 35 mg HCl-salt/kg body weight/day oral for 6 consecutive months): did not adversely affect body weight and body weight gain
Body weight gain decreased compared to the control group ([3]; female rats, 300 mg HCl-salt/kg body weight/day oral, week 13): 15%
Body weight gain decreased compared to the control group ([3]; female rats, 300 mg HCl-salt/kg body weight/day oral, week 26): 23%
Body weight gain (in words) ([3]; female rats, 300 mg HCl-salt/kg body weight/day, especially towards end of dosing period): moderate to pronounced decrease
Body weight (in words) ([3]; female rats, 300 mg HCl-salt/kg body weight/day): moderately decreased body weight
Remaining body weight difference at the end of the recovery period compared to control animals (in words) [3, 8]: only slightly lower
Body weight gain decreased ([3]; female rats, 600/450 mg HCl-salt/kg body weight/day oral, week 13): 18%
Body weight gain decreased ([3]; female rats, 600/450 mg HCl-salt/kg body weight/day oral, week 26): 21%
Body weight gain (in words) ([3]; female rats, 600/450 mg HCl-salt/kg body weight/day, from first week of dosing): moderate to pronounced decrease in body weight gain
Body weight (in words) ([3]; female rats, 600/450 mg HCl-salt/kg body weight/day): moderately decreased body weight
Body weight after cessation of treatment (in words) [3, 8]: partial regain of their normal body weight
Decreases in body weight gain at the end of the treatment period ([3]; female rats): ≤ 21%
Body weight gain decreased ([3]; male rats, 35 mg HCl-salt/kg body weight/day oral, week 13, vs control): 6%
Body weight gain decreased ([3]; male rats, 35 mg HCl-salt/kg body weight/day oral, week 26, vs control): 5%
Body weight and weight gain (in words) ([3]; male rats, 35 mg HCl-salt/kg body weight/day, significant weeks 8-12 (gain) and 10-12 (weight), p<0.05): slightly lower compared to control rats
Body weight gain decreased ([3]; male rats, 300 mg HCl-salt/kg body weight/day oral, week 13): 27%
Body weight gain decreased ([3]; male rats, 300 mg HCl-salt/kg body weight/day oral, week 26): 24%
Body weight and body weight gain (in words) ([3]; male rats, 300 mg HCl-salt/kg body weight/day, from first week of dosing, p<0.001): pronounced decrease in body weight and body weight gain
Body weight at the end of the three month recovery period compared to control animals (in words) [3, 9]: still moderately lower
Body weight gain decreased ([3]; male rats, 600/450 mg HCl-salt/kg body weight/day oral, week 13): 33%
Body weight gain decreased ([3]; male rats, 600/450 mg HCl-salt/kg body weight/day oral, week 26): 32%
Body weight and body weight gain (in words) ([3]; male rats, 600/450 mg HCl-salt/kg body weight/day, from week 1 onwards, p<0.001): pronounced decrease in body weight and body weight gain
Body weight after cessation of treatment (in words) [3, 9]: partial regain of their normal (control) body weight
Decreases in body weight gain at the end of the treatment period ([3]; male rats): up to 32%
Body weights and body weight gains (conclusion in words) ([3]; rats, starting at 35 mg HCl-salt/kg body weight/day for males and 300 for females): dose-related decrease
Body weight change (Table 1) ([4]; dogs, 10 mg/kg bw/day, females, Day 4): −6%
Body weight change (Table 1) ([4]; dogs, 10 mg/kg bw/day, females, Day 21): −2%
Body weight change (Table 1) ([4]; dogs, 10 mg/kg bw/day, females, Day 182): +26%
Body weight change (Table 1) ([4]; dogs, 10 mg/kg bw/day, females, Day 364): +25%
Body weight change (Table 1) ([4]; dogs, 10 mg/kg bw/day, males, Day 4): −1%
Body weight change (Table 1) ([4]; dogs, 10 mg/kg bw/day, males, Day 21): 0%
Body weight change (Table 1) ([4]; dogs, 10 mg/kg bw/day, males, Day 182): +22%
Body weight change (Table 1) ([4]; dogs, 10 mg/kg bw/day, males, Day 364): +32%
Body weight change (Table 1) ([4]; dogs, 25 mg/kg bw/day, females, Day 4): −7%
Body weight change (Table 1) ([4]; dogs, 25 mg/kg bw/day, females, Day 21): −4%
Body weight change (Table 1) ([4]; dogs, 25 mg/kg bw/day, females, Day 182): +16%
Body weight change (Table 1) ([4]; dogs, 25 mg/kg bw/day, females, Day 364): +26%
Body weight change (Table 1) ([4]; dogs, 25 mg/kg bw/day, males, Day 4): −4%
Body weight change (Table 1) ([4]; dogs, 25 mg/kg bw/day, males, Day 21): −4%
Body weight change (Table 1) ([4]; dogs, 25 mg/kg bw/day, males, Day 182): +71%
Body weight change (Table 1) ([4]; dogs, 25 mg/kg bw/day, males, Day 364): +19%
Body weight change (Table 1) ([4]; dogs, 50 mg/kg bw/day, females, Day 4): −9%
Body weight change (Table 1) ([4]; dogs, 50 mg/kg bw/day, females, Day 21): −12%
Body weight change (Table 1) ([4]; dogs, 50 mg/kg bw/day, females, Day 182): +11%
Body weight change (Table 1) ([4]; dogs, 50 mg/kg bw/day, females, Day 364): +9%
Body weight variation during the treatment-free period only (value in brackets, Table 1) ([4]; dogs, 50 mg/kg bw/day, females): +26% (+26%)
Body weight change (Table 1) ([4]; dogs, 50 mg/kg bw/day, females, Day 455 (end of treatment-free period)): +26% (+26%)
Body weight change (Table 1) ([4]; dogs, 50 mg/kg bw/day, males, Day 4): −9%
Body weight change (Table 1) ([4]; dogs, 50 mg/kg bw/day, males, Day 21): −12%
Body weight change (Table 1) ([4]; dogs, 50 mg/kg bw/day, males, Day 182): +7%
Body weight change (Table 1) ([4]; dogs, 50 mg/kg bw/day, males, Day 364): +9%
Body weight variation during the treatment-free period only (value in brackets, Table 1) ([4]; dogs, 50 mg/kg bw/day, males): +6%
Body weight change (Table 1) ([4]; dogs, 50 mg/kg bw/day, males, Day 455 (end of treatment-free period)): +12%
Mean body weight gain compared to control (in words) ([4]; dogs, treated groups, days 182 and 364): lower does-relative mean body weight gain
Day on which weight returned to the initial weight ([4]; female dogs, 10 mg/kg bw/day): 28 days
Mean body weight loss ([4]; female dogs, 10 mg/kg bw/day, first 4 days of treatment): 0.4 kg
Day on which weight returned to the initial weight ([4]; female dogs, 25 mg/kg bw/day): 42 days
Mean body weight loss ([4]; female dogs, 25 mg/kg bw/day, first 4 days of treatment): 0.5 kg
Mean body weight loss ([4]; female dogs, 50 mg/kg bw/day, first 4 days of treatment): 0.7 kg
Body weight gain during the treatment-free period compared to controls (in words) ([4]; group 4 females): higher body weight gain
Body weight gain during the treatment-free period compared to controls (in words) ([4]; group 4 males): only slightly higher
Day on which weight returned to the initial weight ([4]; high dose female group (50 mg/kg bw/day)): 77 days
Mean body weight loss ([4]; high dose female group (50 mg/kg bw/day), day 21): 0.8 kg
Day on which weights returned to the initial values ([4]; high dose male group (50 mg/kg bw/day)): 126 days
Mean body weight loss ([4]; high dose male group (50 mg/kg bw/day), day 21): 0.8 kg
Day on which weights returned to initial weights ([4]; male dogs, 25 mg/kg bw/day): 35 days
Mean body weight loss ([4]; male dogs, 25 mg/kg bw/day, first 4 days of treatment): 0.3 kg
Mean body weight loss ([4]; male dogs, 50 mg/kg bw/day, first 4 days of treatment): 0.7 kg
Weight relative to placebo treated patients (in words) ([5]; 6-week clinical study in major depressive disorder patients): dose-related decrease in weight relative to placebo treated patients
Number of subjects with a decrease in weight of 7% or more ([5]; 200-mg group): 1 subjects
Percentage of subjects with a decrease in weight of 7% or more ([5]; 200-mg group): 0.9%
Mean weight loss ([5]; 200-mg group): 0.6 kg
Number of subjects with a decrease in weight of 7% or more ([5]; 400-mg group): 3 subjects
Percentage of subjects with a decrease in weight of 7% or more ([5]; 400-mg group): 2.5%
Mean weight loss ([5]; 400-mg group): 0.9 kg
Mean change from baseline to endpoint in BMI ([5]; R228060 200 mg): −0.2 kg/m^2
Subjects with weight Decrease ≥7% ([5]; R228060 200 mg (N = 116)): 1 (0.9) n (%)
Subjects with weight Increase <7% ([5]; R228060 200 mg (N = 116)): 39 (33.6) n (%)
Subjects with weight Increase ≥7% ([5]; R228060 200 mg (N = 116)): 1 (0.9) n (%)
Subjects with weight No change/decrease <7% ([5]; R228060 200 mg (N = 116)): 75 (64.7) n (%)
Weight, End point, Mean ([5]; R228060 200 mg group): 85.4 kg
Weight, End point, Median ([5]; R228060 200 mg group): 83.4 kg
Weight, Change from Baseline, Mean ([5]; R228060 200 mg group): -0.6 kg
Weight, Change from Baseline, Median ([5]; R228060 200 mg group): -0.5 kg
Mean change from baseline to endpoint in BMI ([5]; R228060 400 mg): −0.3 kg/m^2
Subjects with weight Decrease ≥7% ([5]; R228060 400 mg (N = 120)): 3 (2.5) n (%)
Subjects with weight Increase <7% ([5]; R228060 400 mg (N = 120)): 27 (22.5) n (%)
Subjects with weight Increase ≥7% ([5]; R228060 400 mg (N = 120)): 0 n (%)
Subjects with weight No change/decrease <7% ([5]; R228060 400 mg (N = 120)): 90 (75.0) n (%)
Weight, End point, Mean ([5]; R228060 400 mg group): 83.2 kg
Weight, End point, Median ([5]; R228060 400 mg group): 78.9 kg
Weight, Change from Baseline, Mean ([5]; R228060 400 mg group): -0.9 kg
Weight, Change from Baseline, Median ([5]; R228060 400 mg group): -0.9 kg
Reporting of anorexia (in words) ([5]; compound-treated groups, 6-week clinical study): increase in reporting of anorexia
Body weight, body weight gain and food consumption (in words) [6]: decreases in body weight and/or body weight gain as well as reductions in food consumption
Food consumption (in words) ([7]; all female dogs, 50 mg/kg bw/day, first week of treatment): lower food consumption, which was marked for 3/6 animals
Food consumption during the treatment-free period (in words) ([7]; dogs, any animal): No effect on food consumption
Lower food consumption ([7]; female dogs, 25 mg/kg bw/day, first week of treatment): −25 to −50 % of the daily portion
Reduced food consumption ([7]; male dogs, 50 mg/kg bw/day, mainly first week of treatment): about −50 % of the daily portion
Reduced food consumption compared to control ([7]; one male dog, 25 mg/kg bw/day, first week of treatment): about −40%
Slightly lower food consumption ([7]; three out of four female dogs, 10 mg/kg bw/day, first week of treatment): about −25 % of the daily portion
